The values below are quoted from earlier work in article PMC6024518 (International Journal of Immunopathology and Pharmacology, 2018).

In the data set the test system is SYK, JAK1, JAK2, JAK3 and other kinases. Particulars: including JAK2.

On to `COc1cc(Nc2ncc(F)c(Nc3ccc4c(n3)NC(=O)C(C)(C)O4)n2)cc(OC)c1OC` [R406], for which the “number of kinases inhibited more potently than SYK” value was 24.
